Laboratory results as given in paper PMC12392461, “Beyond Estrogenicity: A Comparative Assessment of Bisphenol A and Its Alternatives in In Vitro Assays Questions Safety of Replacements” (Environmental Science & Technology, 2025).

What was measured:
[1] = target: T1, Peroxisome proliferator-activated receptor γ (Homo sapiens, UniProt P37231); assay: cell-based; settings: for EC10, PPARγ (M): 10% of maximum effect of rosiglitazone; for EC10, linear transformed / EC10, linear / logEC10: PPARγ bioassay; for EC10, linear: linear model; for logEC10: log-logistic model; for SR-ScorePPARγ: SR-Score, sigma k=1, x=5; for Specificity ratio (SRbaseline) SRPPARγ: against baseline cytotoxicity; for Specificity ratio (SRcytotoxicity) SRPPARγ: against experimental cytotoxicity; for EC10, PPARγ: effect; for log(1/EC10) PPARγ: input of the ToxPi score, values up to 1.00; for Emax: read-out: Emax%PPARγ
T1 sequence (P37231 238-505 limits assumed): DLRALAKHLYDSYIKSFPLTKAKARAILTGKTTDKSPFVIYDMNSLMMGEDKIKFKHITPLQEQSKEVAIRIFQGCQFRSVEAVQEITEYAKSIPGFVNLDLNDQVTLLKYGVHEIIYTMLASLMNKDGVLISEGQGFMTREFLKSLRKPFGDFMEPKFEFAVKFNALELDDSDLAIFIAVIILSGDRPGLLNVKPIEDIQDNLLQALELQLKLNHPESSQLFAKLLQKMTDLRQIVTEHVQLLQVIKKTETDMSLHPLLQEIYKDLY
Excerpt: (§1) All bioassay media components and the ERα-UAS-bla GripTite and PPARγ-UAS-bla cells were obtained from Thermo Fisher Scientific (Waltham, MA, USA). AREc32 reporter gene cells based on MCF7 were provided by C. Roland Wolf (Cancer Research UK); AhR CALUX cells (H4L7.5c2 derived from H4IIe) were provided by Michael Denison (UC Davis, USA); and SH-SY5Y cells were purchased from Sigma-Aldrich.
(§2) Cell culture conditions and bioassay protocols including response detection are provided in Text S2.1–2.4 and Table S3. − Cell viability was determined from cell confluency using an IncuCyte S3 Live-Cell Analysis System (Sartorius AG, Essen, Germany) before and after exposure, except for SH-SY5Y cells (live–dead staining with Nuclear Green LcS1 and propidium iodide, Abcam, UK). For metabolic activation experiments, cell viability was assessed using the ToxBLAzer DualScreen Kit (Thermo Fisher Scientific) to capture the remaining toxicity in ERα-UAS-bla GripTite after treatment with the aCYP catalyst (details in Text S2.4).
For ARE, the concentration that triggered an induction ratio of 1.5 (ECIR1.5) was used as the benchmark value, as detailed in Text S2.5. IC10 values also served as a threshold for data analysis in all assays; only concentrations below IC10 were considered when deriving EC10 or ECIR1.5.
The maximum efficacy (Emax%) refers to the maximum of the log–logistic concentration–response curve attained by test chemicals compared to the reference chemical’s maximum and was obtained for both ERα and PPARγ. […]
(§3) S2: Cell culture and bioassays
(§4) S2.1: Cell Culturing Conditions
All suppliers and sources are given in detail in SI-Excel S3. The bioassay media for the different assays were prepared as follows: Assay medium for ER alpha-UAS-bla GripTite (ERα) and […]
2% charcoal-stripped FBS, and 100 U/mL penicillin-streptomycin. […]
S2.2: Cell Seeding and Incubation. For all bioassays, cell suspensions in the respective assay medium were dispensed into each well of 384-well plates using a MultiFlo Dispenser (Biotek, (now Agilent), Winooski, VT, U.S.). After seeding, the plates were incubated at 37° C and 5% CO₂ for […]. The final cell densities and plate types were as follows: Black poly-D-lysine […]
6500 cells/well, ERα: 5000 cells/well. White 384-well plates with a clear bottom (Product No. […]
S2.3: Chemical Dosing and Assay Analysis Procedures.

[2] = target: T2, Aryl hydrocarbon receptor (Rattus norvegicus, UniProt P41738); settings: for EC10, linear transformed / EC10, linear / logEC10: Bioassay AhR, dosing range all; for EC10, linear: linear model fit; for logEC10: log-logistic model fit; for SR-ScoreAhR: SR-Score, sigma k=1, x=5; for Specificity ratio (SRbaseline) SRAhR: against baseline cytotoxicity; for Specificity ratio (SRcytotoxicity) SRAhR: against experimental cytotoxicity; for EC10, AhR: effect; for log(1/EC10) AhR: input of the ToxPi score, values up to 1.00
T2 sequence (P41738 10-853): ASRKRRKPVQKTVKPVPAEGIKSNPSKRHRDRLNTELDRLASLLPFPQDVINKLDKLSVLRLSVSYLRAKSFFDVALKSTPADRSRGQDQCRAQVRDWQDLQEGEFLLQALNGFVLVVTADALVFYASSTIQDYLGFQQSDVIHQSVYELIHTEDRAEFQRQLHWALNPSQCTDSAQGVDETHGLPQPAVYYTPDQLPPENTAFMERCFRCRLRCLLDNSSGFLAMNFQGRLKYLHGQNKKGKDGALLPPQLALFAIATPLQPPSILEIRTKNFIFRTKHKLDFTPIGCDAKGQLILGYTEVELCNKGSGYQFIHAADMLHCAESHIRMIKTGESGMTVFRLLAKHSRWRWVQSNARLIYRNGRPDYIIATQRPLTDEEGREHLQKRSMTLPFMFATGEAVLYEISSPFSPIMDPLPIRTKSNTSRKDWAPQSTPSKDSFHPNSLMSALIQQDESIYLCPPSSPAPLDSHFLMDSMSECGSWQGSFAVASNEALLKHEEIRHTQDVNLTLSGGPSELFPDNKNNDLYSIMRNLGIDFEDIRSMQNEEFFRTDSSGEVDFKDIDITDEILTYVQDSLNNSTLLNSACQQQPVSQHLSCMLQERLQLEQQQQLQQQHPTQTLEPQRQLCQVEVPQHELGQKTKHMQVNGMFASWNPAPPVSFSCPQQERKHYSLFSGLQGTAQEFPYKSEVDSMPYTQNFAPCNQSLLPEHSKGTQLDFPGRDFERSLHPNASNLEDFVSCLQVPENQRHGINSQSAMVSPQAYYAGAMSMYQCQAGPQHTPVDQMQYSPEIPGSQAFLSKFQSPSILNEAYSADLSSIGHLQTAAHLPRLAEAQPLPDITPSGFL
Excerpt: as §1, §2
For ARE, the concentration that triggered an induction ratio of 1.5 (ECIR1.5) was used as the benchmark value, as detailed in Text S2.5. IC10 values also served as a threshold for data analysis in all assays; only concentrations below IC10 were considered when deriving EC10 or ECIR1.5. […]
as §3, §4
All suppliers and sources are given in detail in SI-Excel S3. The bioassay media for the different assays were prepared as follows: Assay medium for ER alpha-UAS-bla GripTite (ERα) and PPAR gamma-UAS-bla 293H (PPARγ) was prepared with 98% Opti-MEM, supplemented with 2% charcoal-stripped FBS, and 100 U/mL penicillin-streptomycin. MitoOxTox and AhR assay medium was comprised of 90% DMEM with GlutaMAX, supplemented with 10% FBS, and 100 U/mL penicillin-streptomycin. Neurotoxicity assay medium consisted of the neurobasal […]
(1 picture or pasted object on this page, not shown here) […]
medium, supplemented with 2% B-27 Supplement and 2 mM GlutaMAX Supplement. SH - SY5Y cells were differentiated with 10 µM all-trans retinoic acid prior to the assay.
S2.2: Cell Seeding and Incubation. For all bioassays, cell suspensions in the respective assay medium were dispensed into each well of 384-well plates using a MultiFlo Dispenser (Biotek, (now Agilent), Winooski, VT, U.S.). After seeding, the plates were incubated at 37° C and 5% CO₂ for […]. The final cell densities and plate types were as follows: Black poly-D-lysine coated 384-well plates (Product No. 354663, Corning Inc., NYC, U.S.) were used for PPARγ:
6500 cells/well, ERα: 5000 cells/well. White 384-well plates with a clear bottom (Product No.
781098, Greiner, Kremsmünster, Austria) were utilized for the MitoOxTox assay: 2650

Row | Compound | EC10, PPARγ (M) [1] | EC10, linear transformed ([1]; dosing range all) | EC10, linear ([1]; dosing range all) | logEC10 ([1]; dosing range all) | SR-ScorePPARγ [1] | Specificity ratio (SRbaseline) SRPPARγ [1] | Specificity ratio (SRcytotoxicity) SRPPARγ [1] | EC10, PPARγ [1] [nM] | log(1/EC10) PPARγ [1] | Emax [1] [%] | EC10, linear transformed [2] | EC10, linear [2] | logEC10 [2] | log(1/EC10) AhR [2] | further results
1 | CC(C)(c1ccc(O)c(-c2ccccc2)c1)c1ccc(O)c(-c2ccccc2)c1 [BPPH, 2,2-Bis(2-hydroxy-5-biphenylyl)propane] | 5.55 × 10^–7 M | 5.55E-07 | 9.24E-07 | -6.26 | 1.00 | 1.90 | 12.47 | 555 | 0.88 | 12 | 9.38E-06 | 9.54E-06 | -5.02 | 0.99 | EC10, AhR (M) [2]: 9.54 × 10^–6 M; SR-ScoreAhR [2]: 0.0254; Specificity ratio (SRbaseline) SRAhR [2]: 0.43; Specificity ratio (SRcytotoxicity) SRAhR [2]: 1.35; EC10, AhR [2]: 9540 nM
2 | O=S(=O)(c1ccc(O)cc1)c1ccc(O)cc1 [BPS, 4,4'-Sulfonyldiphenol] |  |  | 1.02E-05 | no effect |  |  |  |  |  |  |  | no effect | no effect | 0.68 | 
3 | C=CCOc1ccc(S(=O)(=O)c2ccc(O)cc2)cc1 [BPS-MAE, 4-[[4-(Allyloxy)phenyl]sulfonyl]phenol] | 5.57 × 10^–7 M | 5.57E-07 | 6.41E-07 | -6.25 | 1.00 |  |  | 557 | 0.88 | 22 |  | no effect | no effect | 0.71 | 
4 | O=S(=O)(c1ccc(O)cc1)c1ccc(OCc2ccccc2)cc1 [BPS-MPE, 4-[4-(benzyloxy)benzenesulfonyl]phenol] | 2.35 × 10^–7 M |  |  |  | 1.00 | 49.84 | 570.13 | 235 | 0.94 | 25 |  | no effect | no effect | 0.91 | EC10, linear transformed ([1]; dosing range high): 1.15E-09; EC10, linear ([1]; dosing range high): 1.01E-07; logEC10 ([1]; dosing range high): -8.94; EC10, linear transformed ([1]; dosing range low): 2.35E-07; EC10, linear ([1]; dosing range low): 4.02E-07; logEC10 ([1]; dosing range low): -6.63
5 | Oc1ccc(Sc2ccc(O)cc2)cc1 [BPT, 4,4'-Thiodiphenol] | 9.61 × 10^–7 M | 9.61E-07 | 1.48E-06 | -6.02 | 1.00 |  |  | 961 | 0.85 | 20 | 9.56E-05 | no effect | masked by cytotoxicity | 0.82 | 
6 | Cc1ccc(S(=O)(=O)NC(=O)Nc2ccc(Cc3ccc(NC(=O)NS(=O)(=O)c4ccc(C)cc4)cc3)cc2)cc1 [BTUM, 4,4'-Bis(p-tolylsulfonylureido)diphenylmethane] | 2.56 × 10^–7 M |  | 2.64E-07 | -6.59 | 1.00 | 110.22 | 121.09 | 256 | 0.93 | 47 |  | no effect | no effect |  | SR (PPARγ) ([1]; specificity ratio): 121
7 | COC(=O)C(c1ccc(O)cc1)c1ccc(O)cc1 [Bz, Methyl bis(4-hydroxyphenyl)acetate] |  |  | no effect | no effect |  |  |  |  |  |  | 5.80E-05 | 6.20E-05 | -3.94 |  | EC10, AhR (M) [2]: 6.20 × 10^–5 M; SR-ScoreAhR [2]: 0.0375; Specificity ratio (SRbaseline) SRAhR [2]: 5.57; Specificity ratio (SRcytotoxicity) SRAhR [2]: 1.75; EC10, AhR [2]: 62000 nM
